Measurements published in patent US8623859B2, “Bradykinin B1 antagonists” (Evotec AG, priority 2008, dated 2014).
Counter-ions that a name gives are not always drawn.

Molecular target: T1, human B1 (Homo sapiens, UniProt P46663)
T1 construct: host or cells: CHO-K1
T1 sequence (P46663 1-353): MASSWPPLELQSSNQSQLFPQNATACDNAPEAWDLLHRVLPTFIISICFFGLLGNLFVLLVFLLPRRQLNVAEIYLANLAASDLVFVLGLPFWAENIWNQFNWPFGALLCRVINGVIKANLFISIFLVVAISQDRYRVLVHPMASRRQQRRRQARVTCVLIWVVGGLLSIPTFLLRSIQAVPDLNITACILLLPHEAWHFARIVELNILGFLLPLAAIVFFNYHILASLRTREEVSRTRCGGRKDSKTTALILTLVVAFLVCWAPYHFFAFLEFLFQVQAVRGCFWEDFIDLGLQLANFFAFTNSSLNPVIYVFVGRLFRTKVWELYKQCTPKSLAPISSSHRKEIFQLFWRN
Test: Calcium flux assay for Bradykinin B1 antagonist, CHO-K1 cell line expressing human B1
Format: cell-based
Settings: CHO-K1 cells expressing human B1, agonist Lys-(Des-Arg)-Bradykinin, read-out: Potency (IC50 value against human B1)
Outline: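 CHO-K1 cells expressing human B1, loaded with 5 μM Fluo-4AM (2 h, 37° C) in HEPES buffer pH 7.4 with probenecid and 0.1% BSA, were preincubated 30 min at 25° C with compound (8 concentrations, triplicate, 1% DMSO) before B1 agonist addition. Ca2+ fluorescence monitored at 538 nm; background-normalized integrated values plotted against log antagonist concentration.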

| Compound | IC50 [µM] |
| --- | --- |
| COc1cc(C)c(S(=O)(=O)N(Cc2nc(C(=O)N(C)Cc3ccc(CN4CCC(NC(C)=O)C4)cc3)co2)C2CC2)c(C)c1 (centres unmarked) [Ex 185, N-(4-{[3-(Acetylamino)pyrrolidin-1-yl]methyl}benzyl)-2-({cyclopropyl[(4-methoxy-2,6-dimethylphenyl)sulfonyl]amino}methyl)-N-methyl-1,3-oxazole-4-carboxamide] | < 0.01 |
| COc1cc(C)c(S(=O)(=O)N(Cc2nc(C(=O)N(C)Cc3ccc(CN4CCC(C(=O)N(C)C)C4)cc3)co2)C2CC2)c(C)c1 (centres unmarked) [Ex 186, 2-({Cyclopropyl[(4-methoxy-2,6-dimethylphenyl)sulfonyl]amino}methyl)-N-(4-{[3-(dimethylcarbamoyl)pyrrolidin-1-yl]methyl}benzyl)-N-methyl-1,3-oxazole-4-carboxamide] | < 0.01 |
| COc1cc(C)c(S(=O)(=O)N(Cc2nc(C(=O)N(C)Cc3ccc(CN4CC(OC)C4)cc3)co2)C2CC2)c(C)c1 [Ex 187, 2-({Cyclopropyl[(4-methoxy-2,6-dimethylphenyl)sulfonyl]amino}methyl)-N-{4-[(3-methoxyazetidin-1-yl)methyl]benzyl}-N-methyl-1,3-oxazole-4-carboxamide] | < 0.01 |
| COc1cc(C)c(S(=O)(=O)N(Cc2nc(C(=O)N(C)Cc3ccc(CN4CC(O)C4)cc3)co2)C2CC2)c(C)c1 [Ex 188, 2-({Cyclopropyl[(4-methoxy-2,6-dimethylphenyl)sulfonyl]amino}methyl)-N-{4-[(3-hydroxyazetidin-1-yl)methyl]benzyl}-N-methyl-1,3-oxazole-4-carboxamide] | 0.01 to 0.1 |
| COc1cc(C)c(S(=O)(=O)N(Cc2nc(C(=O)N(C)Cc3ccc(CN4CC(O)C(O)C4)cc3)co2)C2CC2)c(C)c1 (centres unmarked) [Ex 189, 2-({Cyclopropyl[(4-methoxy-2,6-dimethylphenyl)sulfonyl]amino}methyl)-N-{4-[(3,4-dihydroxypyrrolidin-1-yl)methyl]benzyl}-N-methyl-1,3-oxazole-4-carboxamide] | < 0.01 |
| COc1cc(C)c(S(=O)(=O)N(Cc2nc(C(=O)N(C)Cc3ccc(CN4CCC(N(C)C)C4)cc3)co2)C2CC2)c(C)c1 (centres unmarked) [Ex 190, 2-({Cyclopropyl[(4-methoxy-2,6-dimethylphenyl)sulfonyl]amino}methyl)-N-(4-{[3-(dimethylamino)pyrrolidin-1-yl]methyl}benzyl)-N-methyl-1,3-oxazole-4-carboxamide] | < 0.01 |
| COc1cc(C)c(S(=O)(=O)N(Cc2nc(C(=O)N3CCN(CC4CCN(C)CC4)CC3)co2)C2CC2)c(C)c1 [Ex 191, N-Cyclopropyl-4-methoxy-2,6-dimethyl-N-{[4-({4-[(1-methylpiperidin-4-yl)methyl]piperazin-1-yl}carbonyl)-1,3-oxazol-2-yl]methyl}benzenesulfonamide trifluoroacetate trifluoroacetate] | < 0.01 |
| COc1cc(C)c(S(=O)(=O)N(Cc2nc(C(=O)N3CCN(CC4CCCN(C)C4)CC3)co2)C2CC2)c(C)c1 (centres unmarked) [Ex 192, N-Cyclopropyl-4-methoxy-2,6-dimethyl-N-{[4-({4-[(1-methylpiperidin-3-yl)methyl]piperazin-1-yl}carbonyl)-1,3-oxazol-2-yl]methyl}benzenesulfonamide trifluoroacetate] | < 0.01 |
| COc1cc(C)c(S(=O)(=O)N(Cc2nc(C(=O)N3CCC(CCN4CCCC4)CC3)co2)C2CC2)c(C)c1 [Ex 193, N-Cyclopropyl-4-methoxy-2,6-dimethyl-N-[(4-{[4-(2-pyrrolidin-1-ylethyl)piperidin-1-yl]carbonyl}-1,3-oxazol-2-yl)methyl]benzenesulfonamide trifluoroacetate] | < 0.01 |
| COc1cc(C)c(S(=O)(=O)N(Cc2nc(C(=O)N3CCN(CCN4CCCCC4)CC3)co2)C2CC2)c(C)c1 [Ex 194, N-Cyclopropyl-4-methoxy-2,6-dimethyl-N-[(4-{[4-(2-piperidin-1-ylethyl)piperazin-1-yl]carbonyl}-1,3-oxazol-2-yl)methyl]benzenesulfonamide trifluoroacetate] | < 0.01 |
| COc1cc(C)c(S(=O)(=O)N(Cc2nc(C(=O)N3CCN(CCN4CCCC4)CC3)co2)C2CC2)c(C)c1 [Ex 195, N-Cyclopropyl-4-methoxy-2,6-dimethyl-N-[(4-{[4-(2-pyrrolidin-1-ylethyl)piperazin-1-yl]carbonyl}-1,3-oxazol-2-yl)methyl]benzenesulfonamide trifluoroacetate] | < 0.01 |
| COc1cc(C)c(S(=O)(=O)N(Cc2nc(C(=O)N3CCN(CCCN(C)C)CC3)co2)C2CC2)c(C)c1 [Ex 196, N-Cyclopropyl-N-{[4-({4-[3-(dimethylamino)propyl]piperazin-1-yl}carbonyl)-1,3-oxazol-2-yl]methyl}-4-methoxy-2,6-dimethylbenzenesulfonamide trifluoroacetate] | < 0.01 |
| COc1cc(C)c(S(=O)(=O)N(Cc2nc(C(=O)N3CCN(CCCN4CCCC4)CC3)co2)C2CC2)c(C)c1 [Ex 197, N-Cyclopropyl-4-methoxy-2,6-dimethyl-N-[(4-{[4-(3-pyrrolidin-1-ylpropyl)piperazin-1-yl]carbonyl}-1,3-oxazol-2-yl)methyl]benzenesulfonamide trifluoroacetate] | < 0.01 |
| COc1cc(C)c(S(=O)(=O)N(Cc2nc(C(=O)N(C)Cc3ccc(CN4CCC(C)(O)C4)cc3)co2)C2CC2)c(C)c1 (centres unmarked) [Ex 198, 2-({Cyclopropyl[(4-methoxy-2,6-dimethylphenyl)sulfonyl]amino}methyl)-N-{4-[(3-hydroxy-3-methylpyrrolidin-1-yl)methyl]benzyl}-N-methyl-1,3-oxazole-4-carboxamide] | < 0.01 |
| COc1cc(C)c(S(=O)(=O)N(Cc2nc(C(=O)N(C)Cc3nnc(CN4CCCC4)s3)co2)C2CC2)c(C)c1 [Ex 199, 2-({Cyclopropyl[(4-methoxy-2,6-dimethylphenyl)sulfonyl]amino}methyl)-N-methyl-N-{[5-(pyrrolidin-1-ylmethyl)-1,3,4-thiadiazol-2-yl]methyl}-1,3-oxazole-4-carboxamide trifluoroacetate] | < 0.01 |
| COc1cc(C)c(S(=O)(=O)N(Cc2nc(C(=O)N(C)Cc3nc(CN4CCCC4)cs3)co2)C2CC2)c(C)c1 [Ex 200, 2-({Cyclopropyl[(4-methoxy-2,6-dimethylphenyl)sulfonyl]amino}methyl)-N-methyl-N-{[4-(pyrrolidin-1-ylmethyl)-1,3-thiazol-2-yl]methyl}-1,3-oxazole-4-carboxamide trifluoroacetate] | < 0.01 |
| COc1cc(C)c(S(=O)(=O)N(C)Cc2nc(C(=O)N(C)Cc3nnc(CN4CCCC4)s3)co2)c(C)c1 [Ex 201, 2-({[(4-Methoxy-2,6-dimethylphenyl)sulfonyl](methyl)amino}methyl)-N-methyl-N-{[5-(pyrrolidin-1-ylmethyl)-1,3,4-thiadiazol-2-yl]methyl}-1,3-oxazole-4-carboxamide trifluoroacetate] | 0.1 to 1 |
| COc1cc(C)c(S(=O)(=O)N(C)Cc2nc(C(=O)N(C)Cc3nc(CN4CCCC4)cs3)co2)c(C)c1 [Ex 202, 2-({[(4-Methoxy-2,6-dimethylphenyl)sulfonyl](methyl)amino}methyl)-N-methyl-N-{[4-(pyrrolidin-1-ylmethyl)-1,3-thiazol-2-yl]methyl}-1,3-oxazole-4-carboxamide trifluoroacetate] | 0.01 to 0.1 |
| COc1cc(C)c(S(=O)(=O)N(Cc2nc(C(=O)N(C)Cc3ccc(CN4CCCC4)nc3)co2)C2CC2)c(C)c1 [Ex 203, 2-({Cyclopropyl[(4-methoxy-2,6-dimethylphenyl)sulfonyl]amino}methyl)-N-methyl-N-{[6-(pyrrolidin-1-ylmethyl)pyridin-3-yl]methyl}-1,3-oxazole-4-carboxamide] | < 0.01 |
| COc1cc(C)c(S(=O)(=O)N(Cc2nc(C(=O)N3CCN(CCCCN(C)C)CC3)co2)C2CC2)c(C)c1 [Ex 204, N-Cyclopropyl-N-{[4-({4-[4-(dimethylamino)butyl]piperazin-1-yl}carbonyl)-1,3-oxazol-2-yl]methyl}-4-methoxy-2,6-dimethylbenzenesulfonamide trifluoroacetate] | < 0.01 |
| COc1cc(C)c(S(=O)(=O)N(Cc2nc(C(=O)N3CC4CCNCC4C3)co2)C2CC2)c(C)c1 (centres unmarked) [Ex 205, N-Cyclopropyl-4-methoxy-2,6-dimethyl-N-{[4-(octahydro-2H-pyrrolo[3,4-c]pyridin-2-ylcarbonyl)-1,3-oxazol-2-yl]methyl}benzenesulfonamide] | 0.1 to 1 |
| COc1cc(C)c(S(=O)(=O)N(Cc2nc(C(=O)N3CC4CCN(C5CCN(C)CC5)CC4C3)co2)C2CC2)c(C)c1 (centres unmarked) [Ex 206, N-Cyclopropyl-4-methoxy-2,6-dimethyl-N-[(4-{[5-(1-methylpiperidin-4-yl)octahydro-2H-pyrrolo[3,4-c]pyridin-2-yl]carbonyl}-1,3-oxazol-2-yl)methyl]benzenesulfonamide trifluoroacetate] | 0.1 to 1 |
| COc1cc(C)c(S(=O)(=O)N(Cc2nc(C(=O)N3CC4CCN(C5CN6CCC5CC6)CC4C3)co2)C2CC2)c(C)c1 (centres unmarked) [Ex 207, N-[(4-{[5-(1-Azabicyclo[2.2.2]oct-3-yl)octahydro-2H-pyrrolo[3,4-c]pyridin-2-yl]carbonyl}-1,3-oxazol-2-yl)methyl]-N-cyclopropyl-4-methoxy-2,6-dimethylbenzenesulfonamide trifluoroacetate] | < 0.01 |
